Measured values as given in patent US9944654B2, “Nargenicin compounds and uses thereof as antibacterial agents” (priority 2014, dated 2018).
pIC50: −log10 of the molar value. ≈ marks a conversion by molar mass, not a printed value. Where two headings read alike, the source gives them in different places.

How the values were obtained:
[1] = biological target: T1, S. aureus DnaE (DNA polymerase III α-subunit homolog from Staphylococcus aureus) (Staphylococcus aureus, UniProt Q5HF71); assay: biochemical; type: biochemical; conditions: for pIC50: S. aureus DnaE IC50
T1 construct: SaDnaE (S. aureus DnaE residues 1-1065); 6xHis (N); made in house; host or cells: E. coli BL21-AI
T1 sequence (Q5HF71 1-1065): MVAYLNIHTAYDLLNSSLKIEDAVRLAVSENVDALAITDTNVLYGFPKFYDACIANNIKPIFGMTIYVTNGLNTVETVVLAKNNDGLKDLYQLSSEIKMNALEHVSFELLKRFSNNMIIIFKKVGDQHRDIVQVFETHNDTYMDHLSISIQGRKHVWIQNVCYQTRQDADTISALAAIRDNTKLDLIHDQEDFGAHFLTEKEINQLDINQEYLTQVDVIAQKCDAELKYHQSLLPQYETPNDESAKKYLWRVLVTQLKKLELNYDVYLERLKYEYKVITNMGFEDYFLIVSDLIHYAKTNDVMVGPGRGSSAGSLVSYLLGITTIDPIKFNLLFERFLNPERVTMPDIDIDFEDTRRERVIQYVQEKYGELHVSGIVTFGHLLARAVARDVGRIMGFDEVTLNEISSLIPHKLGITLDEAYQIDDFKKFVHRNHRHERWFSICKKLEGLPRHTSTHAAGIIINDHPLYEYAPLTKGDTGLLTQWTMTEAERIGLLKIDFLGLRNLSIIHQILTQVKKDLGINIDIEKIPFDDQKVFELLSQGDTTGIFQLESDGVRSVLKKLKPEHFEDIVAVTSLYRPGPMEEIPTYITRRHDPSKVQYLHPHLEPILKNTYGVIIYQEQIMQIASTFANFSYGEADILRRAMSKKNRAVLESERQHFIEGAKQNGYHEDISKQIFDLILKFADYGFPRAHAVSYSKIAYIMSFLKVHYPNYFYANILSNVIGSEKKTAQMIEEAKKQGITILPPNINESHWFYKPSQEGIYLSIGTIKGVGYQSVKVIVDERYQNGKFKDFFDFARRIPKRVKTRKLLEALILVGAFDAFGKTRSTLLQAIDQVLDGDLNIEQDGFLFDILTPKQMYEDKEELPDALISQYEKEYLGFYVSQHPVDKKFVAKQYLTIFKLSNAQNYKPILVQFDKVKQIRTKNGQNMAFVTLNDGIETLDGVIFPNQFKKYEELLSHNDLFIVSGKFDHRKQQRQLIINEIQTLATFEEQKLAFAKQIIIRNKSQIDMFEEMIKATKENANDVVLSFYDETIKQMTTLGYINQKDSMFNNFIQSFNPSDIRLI
Experimental: (§1) Plasmids encoding EcDnaE (E. coli DnaE residues 1-1160) and SaDnaE (S. aureus DnaE residues 1-1065) with 6×His N-terminal tags, were overexpressed in BL21(DE3) and BL21-AI cells (Invitrogen), respectively. Cells were grown in LB media to an OD ˜0.45 pelleted and then resuspended in Minimal Media, as described in Pryor et al. (1997, Protein Expr Purif. 10:309-19), and inducer (0.4 mM IPTG or 0.2% arabinose) for 21 hours at 18° C. at 220 rpm. Cells were then harvested, frozen for 20 minutes at −80° C. and thawed. Pellets were resuspended in 1× Talon buffer (50 mM Sodium Phosphate, 300 mM Sodium Chloride, pH 7.4) +10% glycerol +Roche PI's (-EDTA). Cells were lysed with two passes through a French press, then centrifuged for 45 minutes at 40,000 rpm (70Ti, Beckman). Supernatant was bound to 5 mL TALON resin (CLONTECH) for 1 hour at room temperature on Nutator. TALON resin was washed with 10 mM imidizole, and DnaE was eluted with 250 mM imidizole. Eluate was concentrated and run on a size exclusion column (SEC200, GE Healthcare) in the following buffer; 25 mM HEPES, 30 mM NaCl,1 mM CaCl2, 5% glycerol, pH 7.9. Pool SEC fractions based on SDS-PAGE run, aliquot, freeze, and store at -80° C.
(§2) DnaE was diluted in 50 mM potassium phosphate pH 7.5, 5 mM BME, 10% glycerol and 200 mM NaCl prior to use.
(§3) The purpose of the DnaE single enzyme assay is to determine the ability of compounds to inhibit the DNA polymerase III α-subunit homolog from Staphylococcus aureus or the α-subunit from Escherichia coli without the other components of the replication machinery. The DnaE single enzyme assay was a modified version of the method, Standard Pol III Assay Using Activated DNA and Four dNTPs, described by Butler et al., 2008, Methods in Molecular Medicine: New Antibiotic Targets 142:25-36. Briefly, in 96-well plates, enzyme was added to a mixture containing 30 mM Tris-HCl pH 7.5, 20% glycerol, 4 mM DTT, 10 mM Mg acetate, 0.025 mM dATP, 0.025 mM dGTP, 0.025 mM dc:TP, 0.011 mM ^3H-dTTP 1 mCi/ml (Perkin-Elmer), and 0.298 mg/mL Dnase I (Sigma) treated “activated” Calf Thymus DNA (Worthington Biochemical). The assay was set up so that 5 μl of compound was distributed to the plates, 90 μl of reaction mix was added to the compound, and 5 μl of enzyme was added to start the reaction. Assays were initiated by the addition of 0.8 μg/ml E. coli or 0.05 μg/ml S. aureus DnaE, incubated for 30 min at 30° C., and terminated by the addition of a 20% trichloroacetic acid and 0.2% sodium pyrophosphate solution. Precipitated labeled DNA was collected on Glass-fiber Filtermat A using Micro96 Harvester, and the filters were washed, dried, and counted in a Microbeta Trilux (Perkin Elmer). Serial dilutions of compounds (in DMSO) were added to the plates before enzyme addition.

[2] = system: Escherichia coli MB5747 (LS 883, tolC); assay: microbe, parasite or virus in culture; type: cell-based; conditions: Escherichia coli, read-out: E. coli LS883 tolC (MIC), MHII broth; * = some reduction of growth versus control at […]
[3] = system: Streptococcus pneumoniae MB6357 (CL 2883); assay: Nargenicin antibacterial assay (MIC), S. pneumoniae; type: cell-based; conditions: Streptococcus pneumoniae, read-out: S. pneumoniae MB2883 (MIC), Isosensitest broth; * = some reduction of growth versus control at […]
[4] = system: Pseudomonas aeruginosa MB5890 (CB1101, efflux-deleted); assay: microbe, parasite or virus in culture; type: cell-based; conditions: Pseudomonas aeruginosa, read-out: P. aeruginosa MB5890 efflux-del (MIC), MHII broth; * = some reduction of growth versus control at […]
[5] = biological target: T2, E. coli DnaE (DNA polymerase III α-subunit from Escherichia coli) (Escherichia coli, UniProt P10443); assay: In vitro DnaE single enzyme assay (E. coli); type: biochemical; conditions: for pIC50: E. coli DnaE IC50; for IC50: read-out: E. coli DnaE IC50 (converted)
T2 construct: EcDnaE (E. coli DnaE residues 1-1160); 6xHis (N); made in house; host or cells: E. coli BL21(DE3)
T2 sequence (P10443 whole entry, the tested form may be a part): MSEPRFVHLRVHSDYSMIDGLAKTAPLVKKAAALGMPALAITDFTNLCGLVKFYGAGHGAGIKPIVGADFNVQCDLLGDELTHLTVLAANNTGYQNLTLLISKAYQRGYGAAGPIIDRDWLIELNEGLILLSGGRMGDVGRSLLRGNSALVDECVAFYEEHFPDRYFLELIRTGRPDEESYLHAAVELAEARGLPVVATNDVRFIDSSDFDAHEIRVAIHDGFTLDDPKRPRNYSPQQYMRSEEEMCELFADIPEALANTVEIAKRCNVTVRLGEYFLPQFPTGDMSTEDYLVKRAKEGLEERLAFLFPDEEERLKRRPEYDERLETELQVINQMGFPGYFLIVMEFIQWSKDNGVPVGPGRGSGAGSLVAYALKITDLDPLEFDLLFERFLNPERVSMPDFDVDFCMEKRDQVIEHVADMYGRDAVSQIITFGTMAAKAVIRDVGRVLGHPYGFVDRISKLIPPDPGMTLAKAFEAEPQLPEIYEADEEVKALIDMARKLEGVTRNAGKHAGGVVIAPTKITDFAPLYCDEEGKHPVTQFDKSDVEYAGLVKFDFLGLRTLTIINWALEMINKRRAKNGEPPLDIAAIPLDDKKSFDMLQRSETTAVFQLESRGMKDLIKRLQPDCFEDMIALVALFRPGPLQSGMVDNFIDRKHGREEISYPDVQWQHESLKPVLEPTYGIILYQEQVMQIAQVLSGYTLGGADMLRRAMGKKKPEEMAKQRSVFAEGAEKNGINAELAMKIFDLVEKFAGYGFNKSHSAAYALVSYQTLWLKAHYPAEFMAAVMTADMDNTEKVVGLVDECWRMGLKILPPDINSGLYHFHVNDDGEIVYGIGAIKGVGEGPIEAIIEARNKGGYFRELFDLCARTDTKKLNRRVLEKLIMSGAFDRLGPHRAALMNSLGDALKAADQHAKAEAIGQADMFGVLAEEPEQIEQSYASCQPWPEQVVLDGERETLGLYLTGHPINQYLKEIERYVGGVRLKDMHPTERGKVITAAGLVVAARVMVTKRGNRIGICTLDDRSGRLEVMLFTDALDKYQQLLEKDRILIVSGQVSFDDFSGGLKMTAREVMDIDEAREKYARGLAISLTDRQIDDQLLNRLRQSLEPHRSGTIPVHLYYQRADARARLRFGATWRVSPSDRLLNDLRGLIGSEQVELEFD
Experimental: as §1, §2, §3

[6] = system: Staphylococcus aureus MB6266 (MRSA COL); assay: Nargenicin antibacterial assay (MIC), S. aureus; type: cell-based; conditions: Staphylococcus aureus, MRSA, read-out: S. aureus COL (MIC), MHII broth + 50% human serum; * = some reduction of growth versus control at […]

SMILES	pIC50 [1]	MIC [2]	MIC [3]	MIC [4]	pIC50 [5]	MIC [6]	IC50 [5]	IC50 ([1]; read-out: S. aureus DnaE IC50 (converted))
CO[C@H]1C[C@H]2C=C[C@H]3[C@H]4O[C@]2(/C(C)=C/[C@@H](C)[C@@H]([C@@H](C)OC(=O)NC(=O)C(Cl)(Cl)Cl)OC1=O)[C@@H]3[C@H](OC(=O)NC(=O)C(Cl)(Cl)Cl)[C@@H](C)[C@H]4OC(=O)c1ccc[nH]1 [Example 1, (3R,4S,7S,8aS,10aR,11R,12R,13R,14R,14aS,14bS,E)-7-methoxy-1,3,13-trimethyl-6-oxo-14-(((2,2,2-trichloroacetyl)carbamoyl)oxy)-4-((R)-1-(((2,2,2-trichloroacetyl)carbamoyl)oxy)ethyl)-3,4,6,7,8,8a,10a,11,12,13,14,14 a-dodecahydro-11,14b-epoxynaphtho[2,1-e]oxecin-12-yl 1H-pyrrole-2-carboxylate]	4.46	> 8 µg/mL	> 128 µg/mL	> 128 µg/mL	4.17	> 8 µg/mL	–	–
CCCNC(=O)O[C@@H]1[C@@H](C)[C@@H](OC(=O)c2ccc[nH]2)[C@@H]2O[C@@]34/C(C)=C/[C@@H](C)[C@@H]([C@@H](C)OC(=O)NCCC)OC(=O)[C@@H](OC)C[C@H]3C=C[C@@H]2[C@@H]14 [Example 3]	< 3.84	> 8 µg/mL	> 128 µg/mL	> 128 µg/mL	–	> 8 µg/mL	30.6 µM	–
CO[C@H]1C[C@H]2C=C[C@H]3[C@H]4O[C@]2(/C(C)=C/[C@@H](C)[C@@H]([C@@H](C)OC(N)=O)OC1=O)[C@@H]3[C@H](OC(N)=O)[C@@H](C)[C@H]4OC(=O)c1ccc[nH]1 [Example 4]	5.93	> 128 µg/mL	> 128 µg/mL	> 128 µg/mL	–	> 128 µg/mL	> 166 µM	–
CO[C@H]1C[C@H]2C=C[C@H]3[C@H]4O[C@]2(/C(C)=C/[C@@H](C)[C@@H]([C@@H](C)OC(=O)NCCN(C)C)OC1=O)[C@@H]3[C@H](O)[C@@H](C)[C@H]4OC(=O)c1ccc[nH]1 [Example 5]	–	16 µg/mL (≈ 25.4 µM)	> 128 µg/mL	> 128 µg/mL	< 3.80	32 µg/mL	–	0.0143 µM
CO[C@H]1C[C@H]2C=C[C@H]3[C@H]4O[C@]2(/C(C)=C/[C@@H](C)[C@@H]([C@@H](C)OC(=O)NC2CC2)OC1=O)[C@@H]3[C@H](O)[C@@H](C)[C@H]4OC(=O)c1ccc[nH]1 [Example 6]	7.74	4 µg/mL (≈ 6.68 µM)	128 µg/mL (≈ 214 µM)	> 128 µg/mL	–	8 µg/mL	75.2 µM	–
CO[C@H]1C[C@H]2C=C[C@H]3[C@H]4O[C@]2(/C(C)=C/[C@@H](C)[C@@H]([C@@H](C)OC(N)=O)OC1=O)[C@@H]3[C@H](O)[C@@H](C)[C@H]4OC(=O)c1ccc[nH]1 [Example 7]	> 7.97	2 µg/mL (≈ 3.58 µM)	> 128 µg/mL	32 µg/mL (≈ 57.3 µM)	–	4 µg/mL	53.7 µM	–
CO[C@H]1C[C@H]2C=C[C@H]3[C@H]4O[C@]2(/C(C)=C/[C@@H](C)[C@@H]([C@@H](C)OC(=O)NCCc2ccccc2)OC1=O)[C@@H]3[C@H](O)[C@@H](C)[C@H]4OC(=O)c1ccc[nH]1 [Example 8]	7.17	> 128 µg/mL	> 128 µg/mL	> 128 µg/mL	–	> 128 µg/mL	45.3 µM	–
CO[C@H]1C[C@H]2C=C[C@H]3[C@H]4O[C@]2(/C(C)=C/[C@@H](C)[C@@H]([C@@H](C)OC(=O)NC(C)C)OC1=O)[C@@H]3[C@H](O)[C@@H](C)[C@H]4OC(=O)c1ccc[nH]1 [Example 9]	7.48	8 µg/mL (≈ 13.3 µM)	32 µg/mL (≈ 53.3 µM)	> 128 µg/mL	–	8 µg/mL	49.9 µM	–
CO[C@H]1C[C@H]2C=C[C@H]3[C@H]4O[C@]2(/C(C)=C/[C@@H](C)[C@@H]([C@@H](C)OC(=O)NCc2ccccc2)OC1=O)[C@@H]3[C@H](O)[C@@H](C)[C@H]4OC(=O)c1ccc[nH]1 [Example 10]	7.51	> 128 µg/mL	> 128 µg/mL	> 128 µg/mL	–	8 µg/mL	> 154 µM	–
CO[C@H]1C[C@H]2C=C[C@H]3[C@H]4O[C@]2(/C(C)=C/[C@@H](C)[C@@H]([C@@H](C)OC(=O)NCc2ccncc2)OC1=O)[C@@H]3[C@H](O)[C@@H](C)[C@H]4OC(=O)c1ccc[nH]1 [Example 11]	7.53	16 µg/mL (≈ 24.6 µM)	> 128 µg/mL	> 128 µg/mL	–	32 µg/mL	123 µM	–
CO[C@H]1C[C@H]2C=C[C@H]3[C@H]4O[C@]2(/C(C)=C/[C@@H](C)[C@@H]([C@@H](C)OC(=O)NCC(=O)O)OC1=O)[C@@H]3[C@H](O)[C@@H](C)[C@H]4OC(=O)c1ccc[nH]1 [Example 12]	> 8.01	32 µg/mL (≈ 51.9 µM)	> 128 µg/mL	> 128 µg/mL	–	> 128 µg/mL	114 µM	–
CNS(=O)(=O)CCNC(=O)O[C@H](C)[C@H]1OC(=O)[C@@H](OC)C[C@H]2C=C[C@H]3[C@H]4O[C@]2(/C(C)=C/[C@H]1C)[C@@H]3[C@H](O)[C@@H](C)[C@H]4OC(=O)c1ccc[nH]1 [Example 13]	> 8.05	8 µg/mL (≈ 11.8 µM)	> 128 µg/mL	> 128 µg/mL	–	32 µg/mL	> 147 µM	–
